Earlier results in patent US20240408101A1, “COMPOSITION AND METHODS OF TREATMENT USING […] - ENHANCED SUPPLEMENTATION” (Xygenyx Inc., priority 2023, published 2024).
Where a SMILES comes first, the peptide text is derived from it.

Assays:
[1] = mice
[2] = system: skin; conditions: as penetration enhancer for transdermal drugs
[3] = system: wide dynamic range neurons in the ventroposterolateral nucleus of the thalamus
[4] = in vivo
[5] = system: skin; conditions: topical application, concentrations 0.5-5%
[6] = system: skin; conditions: topical formulations, within four weeks of treatment
[7] = dietary supplementation, doses up to 400 IU/day, controlled trials
[8] = dietary supplementation, doses up to 400 IU/day
[9] = in combination with 10-20 mg β-carotene and 400-500 mg vitamin C, doses around 400-500 IU
[10] = compared to α-tocopherol taken as 1.0
[11] = system: F2-isoprostane; conditions: large doses of 1600-3200 IU/day
[12] = even when dietary intake occurs in equal portions
[13] = in vivo; remark: listed apart in the source

Compound: CC(CN)C(=O)O [L-BAIBA, L-beta-aminoisobutyric acid]
- tolerated dose [1]: 10-100 mg/kg of bodyweight

Compound: CC(C)[C@@H]1CC[C@@H](C)C[C@H]1O [Menthol]
- increase of transdermal drug uptake, factor [2]: ≥ 10

Compound: CCCCCc1cc(O)c2c(c1)OC(C)(C)C1CCC(C)=CC21 (centres unmarked) [THC, Δ-9-tetrahydrocannabinol]
- analgesic power relative to morphine [3]: ten times more powerful than morphine

Compound: CCNC(=O)CC[C@H](N)C(=O)O [Theanine]
- dose considered safe and well-tolerated [4]: up to 400 mg per day

Compound: C=CCCCCCCCCC(=O)N[C@@H](Cc1ccccc1)C(=O)O [UP, Undecylenoyl phenylalanine]
- time to skin lightening effects [5]: ≥ 7 days

Compound: CC12CCC(CC1)C(C)(C)O2 [eucalyptol, 1,8-epoxy-p-menthane]
- increase of transdermal drug uptake, factor [2]: more than 10

Compound: CC[C@H](C)[C@H](NC(=O)[C@H](CC(=O)O)NC(=O)[C@@H](N)CCCCN)C(=O)N[C@@H](CCCNC(N)=O)C(N)=O [tripeptide-10 citrulline, Tripeptide-10 citrulline] (HELM PEPTIDE1{K.D.I.[Cit].[am]}$$$$V2.0)
- improvement of suppleness [6]: ≤ 54%

Compound: Cc1c(C)c2c(c(C)c1O)CC[C@@](C)(CCC[C@H](C)CCC[C@H](C)CCCC(C)C)O2 [α-tocopherol]
- reduction of risk of developing neurodegenerative diseases [7]: ≤ 24%
- reduction of risk of coronary disease [8]: up to 34%
- reduction in the development of age-related cataracts [9]: 23%
- relative biological activity [10]: 1.0
- blood plasma concentration of F2-isoprostane [11]: significantly lower

Compound: Cc1cc(O)c(C)c2c1O[C@](C)(CCC[C@H](C)CCC[C@H](C)CCCC(C)C)CC2 [β-tocopherol]
- relative biological activity [10]: 0.5

Compound: Cc1c(O)cc2c(c1C)O[C@](C)(CCC[C@H](C)CCC[C@H](C)CCCC(C)C)CC2 [γ-tocopherol]
- relative biological activity [10]: 0.1
- concentration in vivo relative to α-tocopherol [12]: roughly 10%

Compound: Cc1cc(O)cc2c1O[C@](C)(CCC[C@H](C)CCC[C@H](C)CCCC(C)C)CC2 [δ-tocopherol]
- relative biological activity [10]: 0.03

Compound: HGH: hormone comprising a peptide chain synthesized in the pituitary gland
- biological half-life [13]: 10-20 minutes
